We go through 5 compounds from patent EP3419977B1, “PLATINUM(II) RING-FUSED CHLORINS, METHODS AND USES THEREOF” (Universidade de Coimbra, priority 2016, dated 2017).

Read-outs that look alike come from different tables or passages of the source. A value given as a limit tells only on which side of the number the result lay.

The conditions of data set [1]: in toluene, used as standard; cited from earlier work.
The test system of data set [2] is human melanocytic melanoma cells (A375). As to the kind of experiment: Photocytotoxicity (photodynamic treatment, MTT assay). Type of data set: cell-based. To be noted: 24 h incubation, irradiated 7.5 mW/cm^2 to 10 J, red filter (cut off < 560 nm). As for the experimental part: In an embodiment the photodynamic activity were as following: For each experiment, A375 cells were plated and kept in the incubator overnight, in order to allow the attachment of the cells. The initial formulation of the sensitizers consisted of a 1 mg/mL solution in DMSO and the desired concentrations were achieved by successive dilutions, being always administered to the cells at 1% DMSO. After sensitizer administration (from 1 nM to 10 µM), cells were incubated for 24 h. Controls were performed on every test. Cells were washed with PBS and new drug-free medium was added. Each plate was irradiated with a fluence rate of 7.5 mW/cm^2 until a total of 10 J was reached, using a light source equipped with a red filter (cut off < 560 nm).
(In general: Tetrazolium dyes change colour on reduction, which living cells bring about.)

The next data set deals with A375 cells. As to conditions: absence of light.
The conditions of data set [3]: in water, used as standard for phosphorescence quantum yields; cited from earlier work.

Method for A375 cells: In an embodiment the cell culture conditions were as following: The A375 (CRL1619) human melanoma cell lines were purchased from American Type Culture Collection and cultured according to standard procedures using the Dulbecco's Modified Eagle medium (Sigma-Aldrich, Inc; Sigma D-5648) supplemented with 10% heat-inactivated fetal bovine serum (Gibco Invitrogen Life Technologies; Gibco 2010-04), 1% Penicillin-Streptomycin (Gibco Invitrogen Life Technologies; 100 U/mL penicillin and 10 µg/mL streptomycin - Gibco 15140-122) and 100 µM sodium pyruvate (Gibco Invitrogen Life Technologies; Gibco 1360) at 37 °C, in a humidified incubator with 95% air and 5% CO2. For all studies, cells were detached using a solution of 0.25% trypsin-EDTA (Gibco).
In an embodiment for the evaluation of photocytotoxicity a MTT assay was performed. Cell culture plates were washed and incubated with a solution of 3-(4,5-dimethylthiazol-2-yl)-2,5- diphenyltetrazolium bromide (0.5 mg/mL, Sigma) in PBS, pH 7.4, in the dark at 37 °C for 4 hours. To solubilize formazan crystals, a 0.04 M solution of hydrochloric acid in isopropanol was added. Absorbance was measured using a Biotek Synergy HT Plate Reader. Cytotoxicity was expressed as the inhibition percentage of cultures subjected to PDT, correlated with cultures only treated with the vehicle administration of sensitizers. […]

As to `C1=Cc2nc1c(-c1ccccc1)c1ccc([nH]1)c(-c1ccccc1)c1nc(c(-c3ccccc3)c3ccc([nH]3)c2-c2ccccc2)C=C1` [TPP, meso-tetraphenylporphyrin], the φF in data set [1] is recorded as 0.11.
Broadly, the IC50 is the concentration at which inhibition is half-maximal. High values mean lower potency, low ones higher potency. For the compound “platinum (II) dimethyl 4,5,6,7-tetrahydropyrazolo[1,5-α]pyridine-2,3-dicarboxylate-fused chlorin [Chlorin 7b]”, the IC50 in data set [2] is > 5 µM.
With “platinum (II) 2,3-dihydroxymethyl-4,5,6,7-tetrahydropyrazolo[1,5-α]pyridine-fused chlorin [Chlorin 8]”, the values for the IC50 (in data set [2]; with A375 cells) were 0.144 µM and 22.3 µM, respectively.
Turning to `[Ru+2].c1ccc(-c2ccccn2)nc1.c1ccc(-c2ccccn2)nc1.c1ccc(-c2ccccn2)nc1` [tris(2,2'-bipyridyl)ruthenium (II)], the φF in data set [3] is listed as 0.042.
Regarding Photofrin@, half-maximal inhibition in data set [2] (IC50) was put at 0.156 µM.
